Data as given in PubChem BioAssay AID1963830 (Molecular Pharmacology Branch, DTP, NCI, 2024).

Tested on: 922993-354-T-J3-PDC complex spheroid viability
Experiment: Anticancer human tumor 922993-354-T-J3-PDC patient-derived endometrial carcinoma cell line growth inhibition [POLQ]
Details: for IC50: curve of first compound; for viability, T/C: stronger effect = lower value
Outline: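 Patient-derived tumour cells were co-cultured with HUVEC and mesenchymal stem cells as multicellular spheroids at 37 °C. They were treated with POLQ inhibitors (novobiocin, ART-558, RP6685) alone or combined with other agents. Top concentrations were at or near clinical Cmax (otherwise 10 microM; SN-38 at 1 microM), decreasing in half-log steps.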

[1] = second compound 0.0316 µM, first compound 0.0316 µM
[2] = second compound 0.0316 µM, first compound 0.1 µM
[3] = second compound 0.0316 µM, first compound 0.316 µM
[4] = second compound 0.0316 µM, first compound 1 µM
[5] = second compound 0.1 µM, first compound 0.0316 µM
[6] = second compound 0.1 µM, first compound 0.1 µM
[7] = second compound 0.1 µM, first compound 0.316 µM
[8] = second compound 0.1 µM, first compound 1 µM
[9] = second compound 0.316 µM, first compound 0.0316 µM
[10] = second compound 0.316 µM, first compound 0.1 µM
[11] = second compound 0.316 µM, first compound 0.316 µM
[12] = second compound 0.316 µM, first compound 1 µM
[13] = second compound 1 µM, first compound 0.0316 µM
[14] = second compound 1 µM, first compound 0.1 µM
[15] = second compound 1 µM, first compound 0.316 µM
[16] = second compound 1 µM, first compound 1 µM
[17] = second compound 3.16 µM, first compound 0.0316 µM
[18] = second compound 3.16 µM, first compound 0.1 µM
[19] = second compound 3.16 µM, first compound 0.316 µM
[20] = second compound 3.16 µM, first compound 1 µM
[21] = second compound 10 µM, first compound 0.0316 µM
[22] = second compound 10 µM, first compound 0.1 µM
[23] = second compound 10 µM, first compound 0.316 µM
[24] = second compound 10 µM, first compound 1 µM
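Also: spheroids exposed to the agents for one week.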
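For viability, T/C in this document: 100% = DMSO vehicle control wells.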

`C=CCn1c(=O)c2cnc(Nc3ccc(N4CCN(C)CC4)cc3)nc2n1-c1cccc(C(C)(C)O)n1` + COC1C(OC(N)=O)C(O)C(Oc2ccc3c(O)c(NC(=O)c4ccc(O)c(CC=C(C)C)c4)c(=O)oc3c2C)OC1(C)C showed an IC50 (second compound 0.0316 µM) of over 1 µM, an IC50 (second compound 0.1 µM) of over 1 µM and an IC50 (second compound 0.316 µM) of over 1 µM. It also gave an IC50 (second compound 1 µM) of over 1 µM, an IC50 (second compound 3.16 µM) of over 1 µM and an IC50 (second compound 10 µM) of over 1 µM. For the same molecule, the viability, T/C (second compound 0.0316 µM, first compound 0.00316 µM) was 91.7%, the viability, T/C (second compound 0.0316 µM, first compound 0.01 µM) was 105% and the viability, T/C [1] was 97.4%. It also gave a viability, T/C [2] of 101%, a viability, T/C [3] of 118% and a viability, T/C [4] of 94.9%. It also gave a viability, T/C (second compound 0.1 µM, first compound 0.00316 µM) of 94%, a viability, T/C (second compound 0.1 µM, first compound 0.01 µM) of 96.3% and a viability, T/C [5] of 101%. It also gave a viability, T/C [6] of 102%, a viability, T/C [7] of 106% and a viability, T/C [8] of 103%. It also gave a viability, T/C (second compound 0.316 µM, first compound 0.00316 µM) of 101%, a viability, T/C (second compound 0.316 µM, first compound 0.01 µM) of 104% and a viability, T/C [9] of 85%. The viability, T/C [10] was 95.4%, the viability, T/C [11] was 102% and the viability, T/C [12] was 84.9%. It also gave a viability, T/C (second compound 1 µM, first compound 0.00316 µM) of 108%, a viability, T/C (second compound 1 µM, first compound 0.01 µM) of 95.7% and a viability, T/C [13] of 88.9%. For the same molecule, the viability, T/C [14] was 96.2%, the viability, T/C [15] was 100% and the viability, T/C [16] was 93.4%. It also gave a viability, T/C (second compound 3.16 µM, first compound 0.00316 µM) of 94.4%, a viability, T/C (second compound 3.16 µM, first compound 0.01 µM) of 97.7% and a viability, T/C [17] of 101%. For the same molecule, the viability, T/C [18] was 91.1%, the viability, T/C [19] was 102% and the viability, T/C [20] was 91.3%. It also gave a viability, T/C (second compound 10 µM, first compound 0.00316 µM) of 94.6%, a viability, T/C (second compound 10 µM, first compound 0.01 µM) of 69.8% and a viability, T/C [21] of 78%. For the same molecule, the viability, T/C [22] was 88.8%, the viability, T/C [23] was 106% and the viability, T/C [24] was 81.2%.

Work on `O=C(c1cc(Cc2n[nH]c(=O)c3ccccc23)ccc1F)N1CCN(C(=O)C2CC2)CC1` + COC1C(OC(N)=O)C(O)C(Oc2ccc3c(O)c(NC(=O)c4ccc(O)c(CC=C(C)C)c4)c(=O)oc3c2C)OC1(C)C yielded an IC50 (second compound 0.0316 µM) of over 10 µM, an IC50 (second compound 0.1 µM) of over 10 µM and an IC50 (second compound 0.316 µM) of over 10 µM. For the same molecule, the IC50 (second compound 1 µM) was over 10 µM, the IC50 (second compound 3.16 µM) was over 10 µM and the IC50 (second compound 10 µM) was over 10 µM. The viability, T/C [1] was 110%, the viability, T/C [2] was 98% and the viability, T/C [3] was 101%. It also gave a viability, T/C [4] of 102%, a viability, T/C (second compound 0.0316 µM, first compound 3.16 µM) of 103% and a viability, T/C (second compound 0.0316 µM, first compound 10 µM) of 86.8%. It also gave a viability, T/C [5] of 115%, a viability, T/C [6] of 95% and a viability, T/C [7] of 106%. The viability, T/C [8] was 104%, the viability, T/C (second compound 0.1 µM, first compound 3.16 µM) was 89.8% and the viability, T/C (second compound 0.1 µM, first compound 10 µM) was 98.5%. For the same molecule, the viability, T/C [9] was 94.6%, the viability, T/C [10] was 107% and the viability, T/C [11] was 82.9%. It also gave a viability, T/C [12] of 83.2%, a viability, T/C (second compound 0.316 µM, first compound 3.16 µM) of 93.5% and a viability, T/C (second compound 0.316 µM, first compound 10 µM) of 97.6%. For the same molecule, the viability, T/C [13] was 95.2%, the viability, T/C [14] was 96.7% and the viability, T/C [15] was 86.4%. For the same molecule, the viability, T/C [16] was 98%, the viability, T/C (second compound 1 µM, first compound 3.16 µM) was 98.1% and the viability, T/C (second compound 1 µM, first compound 10 µM) was 90.2%. The viability, T/C [17] was 90%, the viability, T/C [18] was 95.7% and the viability, T/C [19] was 90.6%. For the same molecule, the viability, T/C [20] was 87%, the viability, T/C (second compound 3.16 µM, first compound 3.16 µM) was 95.7% and the viability, T/C (second compound 3.16 µM, first compound 10 µM) was 85.8%. For the same molecule, the viability, T/C [21] was 88.3%, the viability, T/C [22] was 84% and the viability, T/C [23] was 87.8%. It also gave a viability, T/C [24] of 68.5%, a viability, T/C (second compound 10 µM, first compound 3.16 µM) of 87.5% and a viability, T/C (second compound 10 µM, first compound 10 µM) of 68.5%.
